We go through 13 compounds from patent publication US4396770A, “1-[3-(6-Fluoro-1,2-benzisoxazol-3-yl)propyl]-4-hydroxy -4-phenylpiperidines” (Hoechst-Roussel Pharmaceuticals Inc., priority 1982, dated 1983).

Read-outs that look alike come from different tables or passages of the source.

The test system of assay [1] is phenyl-para-quinone induced writhes. Briefly: phenyl-para-quinone writhing assay in mice (analgesia). The class given is in vivo. The settings on record: Mus musculus, sc, subcutaneous, estimated dose for 50% reduction in phenyl-para-quinone induced writhes, read-out: Analgesic Activity (ED50 mg/kg). An excerpt: Exptl. Biol. Med., 95, 729 (1953)]. Presented in Table 1 is the analgesic activity of representative compounds of the invention and two standards, expressed as the estimated subcutaneous dose at which the mice experience a 50% reduction in phenyl-para-quinone induced writhes, i.e., the ED50 -value.

Assay [2] has as its system apomorphine-induced climbing. Nature of the assay: climbing mice assay (antipsychotic activity). The class given is in vivo, CK-1 male mice. The settings on record: Mus musculus, ip. As for the experimental part: The 1-[3-(6-fluoro-1,2-benzisoxazol-3-yl)propyl]-4-hydroxy-4-phenylpiperidinesof the present invention are useful for treating psychoses by virtue of their ability to block apomorphine-induced climbing in mammals.
Antipsychotic activity is determined in the climbing mice assay by a method similar to those described by P. Protais et al., Psychopharmacol., 50, 1 (1976) and B. Costall, Eur. J. Pharmacol., 50, 39 (1978).
The subject CK-1 male mice (23-27 grams) are group-housed under standard laboratory conditions. The mice are individually placed in wire mesh stick cages (4"×4"×10") and are allowed one hour for adaptation and exploration of the new environment. Then apomorphine is injected subcutaneously at 1.5 mg/kg, a dose causing climbing in all subjects for 30 minutes. Compounds to be tested for antipsychotic activity are injected intraperitoneally 30 minutes prior to the apomorphine challenge at a screening dose of 10 mg/kg.
For evaluation of climbing, 3 readings are taken at 10, 20 and 30 minutes after apomorphine administration according to the following scale:
Mice consistently climbing before the injection of apormorphine will be discarded.
With full-developed apomorphine climbing, the animals are hanging onto the cage walls, rather motionless, over longer periods of time. By contrast, climbs due to mere motor stimulation usually only last a few seconds.
The climbing scores are individually totaled (maximal score: 6 per mouse over 3 readings) and the total score of the control group (vehicle intraperitoneally--apomorphine subcutaneously) is set to 100%. ED50 values with 95% confidence limits are calculated by a Linear Regression Analysis. Antipsychotic activity expressed as the ED50 value of representative 1-[3-(6-fluoro-1,2-benzisoxazol-3-yl)propyl]-4-hydroxy-4-phenylpiperidinesas well as two standard antipsychotics are presented in Table II.

The mark [3] stands for this setting: read-out: Antipsychotic Activity ED50 (mg/kg).

On to `OC1(c2ccccc2)CCN(CCCc2noc3cc(F)ccc23)CC1` [Example 1, 1-[3-(6-Fluoro-1,2-benzisoxazol-3-yl)propyl]-4-hydroxy-4-phenylpiperidine], for which the ED50 in assay [1] was 5.9 mg/kg; in assay [2] (setting [3]) it was 9.6 mg/kg.
`Cl.OC1(c2cccc(Cl)c2)CCN(CCCc2noc3cc(F)ccc23)CC1` [Example 2, 4-(3-Chlorophenyl)-1-[3-(6-fluoro-1,2-benzisoxazol-3-yl)propyl]-4-hydroxypiperidine hydrochloride]: the ED50 in assay [1] and in assay [2] (setting [3]) was 0.8 mg/kg each time.
On to `OC1(c2ccc(Cl)cc2)CCN(CCCc2noc3cc(F)ccc23)CC1` [Example 3, 4-(4-Chlorophenyl)-1-[3-(6-fluoro-1,2-benzisoxazol-3-yl)propyl]-4-hydroxypiperidine], for which, in assay [2] (setting [3]), the ED50 was 0.51 mg/kg.
For the compound `OC1(c2ccc(F)cc2)CCN(CCCc2noc3cc(F)ccc23)CC1` [Example 4, 1-[3-(6-Fluoro-1,2-benzisoxazol-3-yl)propyl]-4-(4-fluorophenyl)-4-hydroxypiperidine], the ED50 in assay [1] was 6.2 mg/kg; in assay [2] (setting [3]) it was 0.8 mg/kg.
As to `Cc1ccccc1C1(O)CCN(CCCc2noc3cc(F)ccc23)CC1.Cl` [Example 5, 1-[3-(6-Fluoro-1,2-benzisoxazol-3-yl)propyl]-4-hydroxy-4-(2-methylphenyl)piperidine hydrochloride], the ED50 in assay [2] (setting [3]) came out at 8.3 mg/kg.
The same measure, in the same setting: with `Cc1ccc(C2(O)CCN(CCCc3noc4cc(F)ccc34)CC2)cc1` [Example 6] the figure was 0.56 mg/kg.
As for `COc1ccc(C2(O)CCN(CCCc3noc4cc(F)ccc34)CC2)cc1.Cl` [Example 7, 1-[3-(6-Fluoro-1,2-benzisoxazol-3-yl)propyl]-4-hydroxy-4-(4-methoxyphenyl)piperidine hydrochloride], the ED50 in assay [1] was 3.8 mg/kg.
Turning to `Cl.OC1(c2cccc(C(F)(F)F)c2)CCN(CCCc2noc3cc(F)ccc23)CC1` [Example 8, 1-[3-(6-Fluoro-1,2-benzisoxazol-3-yl)propyl]-4-hydroxy-4-(3-trifluoromethylphenyl)piperidine hydrochloride], the ED50 was 1 mg/kg in assay [1] and 0.25 mg/kg in assay [2] (setting [3]).
In the case of `OC1(c2ccc(C(F)(F)F)cc2)CCN(CCCc2noc3cc(F)ccc23)CC1` [Example 9, 1-[3-(6-Fluoro-1,2-benzisoxazol-3-yl)propyl]-4-hydroxy-4-(4-trifluoromethylphenyl)piperidine], in assay [2] (setting [3]), the ED50 is 3.1 mg/kg.
As for `O=C(CCCN1CCC(O)(c2ccc(Cl)cc2)CC1)c1ccc(F)cc1` [haloperidol, reference compound], in assay [2] (setting [3]), the ED50 amounted to 0.11 mg/kg.
For `CC(C)=CCN1CCC2(C)c3cc(O)ccc3CC1C2C` (centres unmarked) [pentazocin, reference compound], the ED50 in assay [1] was 1.3 mg/kg.
Consider `CCC(=O)O[C@](Cc1ccccc1)(c1ccccc1)[C@H](C)CN(C)C` [propoxyphene, reference compound], for which, in assay [1], the ED50 was 3.9 mg/kg.
With `CCN1CCCC1CNC(=O)c1cc(S(N)(=O)=O)ccc1OC` (centres unmarked) [sulpiride, reference compound], the ED50 in assay [2] (mice, intraperitoneal 30 minutes prior to apomorphine 1.5 mg/kg subcutaneously, climbing scores at 10, 20 and 30 minutes, read-out: Antipsychotic Activity ED50) is 4.5 mg/kg.
